Consider seven compounds from patent US20260242350A1, “POLYCYCLIC THYROID HORMONE BETA RECEPTOR AGONIST AND USE THEREOF” (CASCADE PHARMACEUTICALS, INC., priority 2023, published 2026).

The target of assay [1] is T1, THRα LBD (His-GST-dLBT-THRα LBD) (Homo sapiens, UniProt P10827).
T1 construct: made in house; host or cells: E. coli BL21 (DE3)
T1 sequence (P10827 163-407 isoform P10827-2): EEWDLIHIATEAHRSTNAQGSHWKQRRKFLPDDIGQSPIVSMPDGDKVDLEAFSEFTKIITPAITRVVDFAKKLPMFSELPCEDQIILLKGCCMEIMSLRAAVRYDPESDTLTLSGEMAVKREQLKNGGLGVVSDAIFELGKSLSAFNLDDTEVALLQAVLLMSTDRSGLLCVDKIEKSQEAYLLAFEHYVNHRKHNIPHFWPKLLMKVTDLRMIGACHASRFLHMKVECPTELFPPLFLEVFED
Briefly: THR-FRET (time-resolved fluorescence resonance energy transfer) agonist activity assay, THRα. It is filed as biochemical. As to conditions: 24 h at room temperature. From the text: (§1) Experimental Example 1: Detection of Agonist Activities of Compounds Against THRα/β Based on Time-Resolved Fluorescence Resonance Energy Transfer (THR-FRET)
(§2) 1. Construction of THRα/β Overexpression Vectors
(§3) By visiting NCBI, the THRα/β LBD domain sequences were found. The pET21-His-GST-dLBT-THRα LBD and pET21-His-GST-dLBT-THRβLBD overexpression vectors were constructed by the fusion method, and sequenced to confirm the accuracy of the sequences.
(§4) 2. Prokaryotic Expression of Recombinant Proteins in E. coli
(§5) The THRα LBD and THRβLBD overexpression vectors confirmed by sequencing were transfected into E. coli cells BL21 (DE3), and spread on an ampicillin-resistant agar plate. Monoclones were picked out and amplified in an LB medium, and transferred into 1 L LB at a ratio of 1:100 for large-scale culture. When the OD value was at 0.8 to 1.2, 0.5 mM isopropyl-beta-D-thiogalactopyranoside (IPTG) was added, and induced overnight at 18° C. The bacteria were harvested, disrupted, and purified via the GST column and the molecular sieve to obtain two proteins His-GST-dLBT-THRα LBD and His-GST-dLBT-THRβLBD.
(§6) 3. Preparation of Compounds and Formulation of Reaction System
(§7) The proteins were taken out from a refrigerator at −80° C. The protein s with the GST-tagged THRα/p LBD domain and the Eu-labelled GST antibodies were thawed slowly on ice, and an assay buffer containing a final concentration of 5 mM dithiothreitol (DTT) was formulated.
(§8) 3.1 Preparation of Compounds
(§9) The starting concentration of the compound was 10 μM (in DMSO). The compound (100 μM in DMSO) was subjected to 3-fold isogradient dilution with DMSO to obtain a total of 11 isogradient concentrations. Subsequently, the above compounds at the isogradient concentration were further subjected to 50-fold dilution with an assay buffer containing 5 mM DTT.
(§10) 3.2 Formulation of THR-FRET Reaction System
(§11) The final concentrations of all components were calculated based on a system with a final volume of 20 µL per well. To […] of assay buffer containing 5 mM DTT, the GST-tagged THRα/β proteins, the SRC2 ([…]) polypeptide, XL665 (Cisobio, #610SAXLB), and the Eu-labeled GST antibody were added, and the final concentrations were 2 nM, 200 nM, 0.05 nM, and 7.6 nM respectively to formulate 18 μL of reaction mixture of the proteins, polypeptide, and antibody per well.
(§12) 18 μL of reaction mixture and 2 μL of diluted compound were added into an optiplate-384-well plate, and reacted at room temperature for 24 h.
(§13) The plate was read using an MD i3x multi-mode microplate reader with the excitation and emission wavelengths of 340 nm and 665 nm, respectively. The intensity of light at a wavelength of 616 nm generated by europium excited by 340 nm wavelength light from the MD i3x multi-mode microplate reader was used as the background. According to the different activation degrees of different compounds against THRα and THRβ, the intensity of the emission light at a wavelength of 665 nm generated by exciting XL665 with the exciting light at a wavelength of 616 nm was varied. The intensity ratio between these two light wavelengths (665 nm, 616 nm) was used as the activation activity of the compound against THRα or THRβ, and was normalized against the ratio in the vehicle DMSO group. The dose-response curve was fitted with four parameters using the GraphPad Prism 6.0 software, and the EC50 value was calculated.

Another assay addresses T2, THRβ (pGAL4-THRβ-LBD) (Homo sapiens, UniProt P10828).
T2 construct: expressed in transfected cells; host or cells: HEK293T
T2 sequence (P10828 217-461): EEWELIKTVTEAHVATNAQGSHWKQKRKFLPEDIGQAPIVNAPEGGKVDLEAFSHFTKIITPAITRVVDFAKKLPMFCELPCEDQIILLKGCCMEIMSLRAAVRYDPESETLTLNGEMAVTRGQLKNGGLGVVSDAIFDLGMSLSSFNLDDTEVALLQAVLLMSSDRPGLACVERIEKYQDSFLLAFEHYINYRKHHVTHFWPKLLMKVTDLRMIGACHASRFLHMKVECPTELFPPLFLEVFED
Briefly: Reporter gene (Dual-Glo luciferase) agonist activity assay in HEK293T cells, THRβ. As to conditions: ratio of EC50 THRα/THRβ. The class given is cell-based. From the text: Experimental Example 2: Detection of Agonist Activities of Compounds Against THRα and THRβ Based on Reporter Gene Activity Assay Method
1.1 Construction and Preparation of Plasmids pGAL4-THR-LBD and pG5-Luc
The pGAL4-THRα-LBD and pGAL4-THRβ-LBD plasmids used in the reporter gene assay system were constructed by a conventional molecular cloning method comprising the following main steps: the cDNA sequences of THRα (NM_003250) and THRβ(NM_000461) corresponding to the amino acid sequences of THRα (163-407AA) and THRβ(217-461AA) were inserted into the BamHI and NotI enzyme digestion sites of the pGAL4 vector by the PCR technique respectively to obtain the pGAL4-THRα-LBD and pGAL4-THRβ-LBD plasmids; the pG5-Luc (#E249A) and pRL-TK (#E2241) plasmids were purchased from Promega; the plasmids were transfected into the E. coli DH5a by the CaCl2 method, and after further culture and amplification, the plasmids were purified by Plasmid Extraction Kits (TIANGEN, #D107) to obtain the corresponding plasmid DNAs.
1.2 Co-Transfection of Plasmids into HEK293T Cells and Treatment with Compounds
The HEK293T cells were inoculated into a 96-well plate at a density of 1×10^4/well the day before plasmid transfection. Cell transfection was conducted according to the instructions of the transfection reagent FuGENE® HD (Promega, #E2311). The main steps were as follows: taking one well as an example here, the plasmids pGAL4-THRα-LBD or pGAL4-THRβ-LBD, pG5-Luc, and pRL-TK were added in the proportions of 20 ng, 50 ng, and 5 ng to 10 μL of Opti-MEM™ I medium (Gibco, #11058021) and mixed well; subsequently, 0.25 μL of FuGENE® HD was added, mixed well, and then left at room temperature for 5 min; afterwards, […] was added to the cell wells containing 100 μL of culture medium. After cell co-transfection for 6 h, the compound was diluted in a 3-fold gradient with dimethyl sulfoxide at the highest concentration of 1 μM. The compound was added to the cell culture medium at a total of 10 concentrations for treatment for 24 h. There were a total of two duplicate wells for each concentration. Triiodothyronine (T3) was used as the positive control.
1.3 Dual-Glo Luciferase Assay
After the cells were treated with the compound for 24 h, the cells were assayed according to the instructions of Dual-Glo® Luciferase Assay System (Promega, #E2940). The main steps were as follows: 50 μL of culture medium was aspirated from each well and discarded, and then 50 μL of Dual-Glo® Luciferase reagent was added and oscillated at room temperature for 10 min; 80 μL of lysis reaction solution was measured into a white opaque optiPlate-96-well plate, and the luminescence signal value (Firefly-Luc) of the Firefly luciferase was detected using an MD i3x multi-mode microplate reader; 40 μL of Dual-Glo® Stop & Glo® reagent was then added, and oscillated at room temperature for 10 min; the luminescence signal value (Renilla-Luc) of the Renilla luciferase was then detected using an MD i3x multi-mode microplate reader. The Firefly-Luc/Renilla-Luc ratio was used as the activation activity of the compound against THR, and was normalized against the ratio in the vehicle DMSO group; the dose-response curve was fitted with four parameters using the GraphPad Prism6.0 software, and the EC50 value was calculated.
(A reporter such as luciferase makes a cellular process visible.)

Assay [2] concerns the target T3, THRβ LBD (His-GST-dLBT-THRβLBD) (Homo sapiens, UniProt P10828).
T3 construct: made in house; host or cells: E. coli BL21 (DE3)
T3 sequence (P10828 217-461 limits assumed): T2 sequence (P10828 217-461)
Briefly: THR-FRET (time-resolved fluorescence resonance energy transfer) agonist activity assay, THRβ. The class given is biochemical. To be noted: for EC50: 24 h at room temperature; for Selectivity (THRα/THRβ): ratio of EC50 THRα/THRβ.
From the text: as §1, §2, §3, §4, §5, §6, §7, §8, §9, §10, §11, §12, §13

As for `Cc1nn(-c2cc(Br)c(Cn3ccc(=O)c4c(C)cccc43)c(Br)c2)c(=O)[nH]c1=O` [Compound 45], the results for the concentration giving a half-maximal response (EC50) in assay [1] and in assay [2] were 100 to 1000 nM and < 50 nM, respectively. For the same compound, the “Selectivity (THRα/THRβ)” value was “† (5 ≥ THRα/β)” at THRβ (pGAL4-THRβ-LBD) and “†† (10 > THRα/β > 1)” in assay [2].

Consider `Cc1nn(-c2cc(Cl)c(Cn3ccc(=O)c4c(C)cccc43)c(Br)c2)c(=O)[nH]c1=O` [Compound 46], for which the EC50 in assay [1] is 50 to 100 nM; in assay [2], < 50 nM. Moreover, the results for the “Selectivity (THRα/THRβ)” value (at THRβ (pGAL4-THRβ-LBD); in assay [2]) were “† (5 ≥ THRα/β)” and “†† (10 > THRα/β > 1)”, respectively.

Consider `Cc1cccc2c1c(=O)ccn2Cc1c(Cl)cc(-n2nc(C(F)F)c(=O)[nH]c2=O)cc1Cl` [Compound 47], for which the EC50 was 100 to 1000 nM in assay [1] and < 50 nM in assay [2]. Moreover, the “Selectivity (THRα/THRβ)” value is on record as “† (5 ≥ THRα/β)” at THRβ (pGAL4-THRβ-LBD) and “†† (10 > THRα/β > 1)” in assay [2].

As to `Cc1cccc2c1c(=O)ccn2Cc1c(Cl)cc(-n2nc(C(F)F)c(=O)[nH]c2=O)cc1Br` [Compound 48], the EC50 in assay [1] and in assay [2] was < 50 nM in each case. In addition, the “Selectivity (THRα/THRβ)” value at THRβ (pGAL4-THRβ-LBD) was “† (5 ≥ THRα/β)”; in assay [2], “†† (10 > THRα/β > 1)”.

In the case of `Cc1cccc2c1c(=O)ccn2Cc1c(Br)cc(-n2nc(C(F)F)c(=O)[nH]c2=O)cc1Br` [Compound 49], the EC50 in assay [1] and in assay [2] was 50 to 100 nM throughout. Further, the entries for the “Selectivity (THRα/THRβ)” value (on THRβ (pGAL4-THRβ-LBD); in assay [2]) were “† (5 ≥ THRα/β)” and “†† (10 > THRα/β > 1)”, respectively.

On to `[2H]C(F)(F)c1nn(-c2cc(Br)c(Cn3ccc(=O)c4ccccc43)c(Br)c2)c(=O)[nH]c1=O` [Compound 71], for which the EC50 was 50 to 100 nM in assay [1] and < 50 nM in assay [2]. Further, the “Selectivity (THRα/THRβ)” value on THRβ (pGAL4-THRβ-LBD) is reported as “†††† (THRα/β > 20)”; in assay [2] it was “†† (10 > THRα/β > 1)”.

Consider `[2H]C(c1c(Br)cc(-n2nc(C(F)F)c(=O)[nH]c2=O)cc1Br)n1ccc(=O)c2ccccc21` (stereo not shown) [Compound 72], for which the EC50 in assay [1] was 50 to 100 nM; in assay [2], < 50 nM. Besides, the entries for the “Selectivity (THRα/THRβ)” value (at THRβ (pGAL4-THRβ-LBD); in assay [2]) were “††† (20 ≥ THRα/β > 10)” and “†† (10 > THRα/β > 1)”, respectively.

In general, EC50 refers to the concentration giving half of the maximal effect. The low end stands for higher potency in that assay, the high end for lower potency in that assay.
